Test results: US6613317B1, “Volatile attractants for diabrotica species” (priority 1988, dated 2003)
Marks after values point to notes of the source that are not given here.

Legend:
[1] = system: western corn rootworm (WCR) adults; test: Sticky trap attraction in corn, estragole analogues (Example 3); format: in vivo, Diabrotica virgifera virgifera; details: 100 mg per trap; for Mean number of WCR per sticky trap (±standard deviation) after 24 hours / Mean number of WCR adults per sticky trap (±standard deviation) after 24 hours: n = 4
Description: (§1) Test chemicals were applied by capillary micropipettes to cotton dental wicks that were attached to tops of 1.0 liter cylindrical paper cartons covered with TangleTrap™, Grand Rapids, Mich. The trapping techniques used were as previously described in Example 1. Cinnamyl alcohol, 4-methoxycinnamaldehyde, cinnamyl acetate, and 4-(4′methoxyphenyl)-3-butene-2-one which are solids at ambient temperature were prepared as standard w/v solutions in acetone prior to dosing the cotton wicks. All treatments were made at a dosage of 100 mg or 100 μL of attractant per trap. Control traps had untreated wicks. Four replicates of treated and untreated traps were positioned randomly 10 meters apart on top of 1 m high posts along the edges of 25-50 ha. fields of hybrid corn (Zea mays), infested with adult NCR, SCR, and WCR beetles. Several experiments detailed in the Tables were made in a 0.4 ha plot of sweet corn (Illini X-tra Sweet).
(§2) Attraction of Diabrotica species adults of the sticky traps was measured by the mean number of beetles caught after 1 day (ca. 24 hours) exposure. The significance of the treatments was determined by analysis of variance and the individual means were separated by Duncan's multiple range test (Statistical Package for the Social Sciences, Nie, et al., 2nd. ed. McGraw-Hill, New York (1975). The data was logarithmically transformed for statistical analysis. Means and standard deviations are presented for the untransformed data. Significance levels were set at P=0.05 for all statistical analyses.

[2] = system: southern corn rootworm (SCR) adults; test: as above; format: in vivo, Diabrotica undecimpunctata howardi; details: 100 mg per trap, n = 4
Description: as §1, §2

[3] = system: northern corn rootworm (NCR); test: Sticky trap attraction in corn, phenylethanol analogues (Example 6); format: in vivo, Diabrotica barberi; details: four replicates; for Mean number of NCR per trap (± standard deviation): Table 20, 100 mg per trap, 24 hour
Description: as §1, with “chemicals (purchased from Aldrich Chemical Co.; Milwaukee, Wis.)” for “chemicals”, “Unless otherwise indicated, all” for “Cinnamyl alcohol, 4-methoxycinnamaldehyde, cinnamyl acetate, and 4-(4′methoxyphenyl)-3-butene-2-one which are solids at ambient temperature were prepared as standard w/v solutions in acetone prior to dosing the cotton wicks. All”
as §2

[4] = system: southern corn rootworm (SCR) adults; test: Sticky trap attraction in sweet corn plots (Example 1); format: in vivo, Diabrotica undecimpunctata howardi; details: August first year, single compounds 100 mg per trap
Description: (§3) The attraction of Diabrotica species to single-component and multicomponent lures was evaluated in corn fields. The field experiments on attraction of SCR and WCR adults were conducted in 0.405-ha (1-acre) plots of “Illini Xtra Sweet” corn grown on the University of Illinois South Farms at Urbana, Ill., over a two year period. Most of the tests were conducted in August to correspond with the peak silk-feeding and oviposition periods of corn rootworm adults in central Illinois. In both years, the sweet corn plot was adjacent to a 0.405-ha trap crop of C. maxima cultivar “Blue Hubbard”, to provide high densitites of SCR and WCR adults in the corn plots (Howe, et al., Environ. Entomol., 5:745-751 (1976), Lampman, et al., J. Chem. Ecol., 13:959-975 (1987).
(§4) Attraction of Diabrotica species to volatile compounds was measured by the average number of beetles cought during a 24-h period on 1.0-liter cylindrical paper cartons (15.2 cm high, 27.9 cm circumference) which were evenly coated with clear insect adhesive, TangleTrap™ (Tanglefood Co., Grand Rapids, Mich.) The candidate attractants were applied by capillary micropiettes to cotton dental wicks (13 mm long by 6 mm diameter) that were previously impregnated with mineral oil to prolong volatilization. The chemicals were purchased from Aldrich Chemical Co., (Milwaukee, Wis.) and assayed by gas chromatography as >97% pure. Indole, a solid at ambient temperatures (m.p. 52-54° C.), was dissolved in glass-distilled acetone before dosing the cotton wicks. For dosage-acticity tests, the various components were mixed in equal quantities by weight and diluted to the appropriate dosage with acetone. Treated and untreated (control) wicks were attached to the top of the paper cartons with TangleTrap™ and the inverted traps were placed on 1-m-high posts between the sweet corn rows. Four replicates of each treatment and a control were conducted in a randomized complete block desgin. The sticky traps within a block (ca. 50-m row of corn) were 5-10 m apart (depending on the number of treatments in a particular test) and the blocks were 3 m apart. The traps were baited and placed in the field between 1000 and 1300 hours and beetle counts were taken after 24 h. The significance of treatments was determined by analysis of variance and the individual means were separated by Duncan's multiple range test (Statistical Package for Social Sciences (SPSS) (Nie, et al., SPSS: statistical package for the social sciences, 2nd ed. McGraw-Hill, N.Y. (1975)). Student's t test was used for comparisons of two means (Sokal, et al., Biometry, Freeman, San Francisco (1969). Significance levels were set at P=0.05 at all statistical analyses.
(§5) The initial field test in August of the first year evaluated the response of SCR and WCR adults of a mixture of veratrole (V), indole (I), phenylacetaldehyde (P), trans-anethole (A), and eugenol (E) (=VIPAE mixture), as well as to the individual components. Each component in the VIPAE mixture was present at a dosage of 20 mg per trap and was compared with the individual components at 100 mg per trap. The response of SCR and WCR adults to a range of VIPAE doses, 1-300 mg, was conducted on the following day. Fifty SCR adults were removed from each 100-mg VIPAE trap, and returned to the laboratory for sex determination. Additional analyses in August evaluated the reduction in trap catches produced by the sequential removal of the individual components from the VIPAE lure. After the primary components of the initial lure were determined, a modified multicomponent lure consisting of veratrole, indole, and phenylacetaldehyde (=VIP mixture) was compared with its individual components to determine whether the attraction of SCR adults was the result of interactive or additive factors. The attraction and synergistic response of SCR adults of the VIP mixture was verified by tests conducted in August of the following year. […]

[5] = system: western corn rootworm (WCR) adults; test: as above; format: in vivo, Diabrotica virgifera virgifera; details: August first year, single compounds 100 mg per trap
Description: as §3, §4, §5

[6] = South Farms, 24 h, mixture 20 mg of each component, n = 4

COCc1ccc(OC)cc1 [V, 4-methoxy benzyl methyl ether]
Relative percent activity as compared with the highest mean in the column (WCR) ([1]; August 29): 32% | Mean number of WCR per sticky trap (±standard deviation) after 24 hours ([1]; August 29): 46.7 ± 29.6 per sticky trap | Relative percent activity as compared with the highest mean in the column (WCR) ([1]; July 30): 46% | Mean number of WCR per sticky trap (±standard deviation) after 24 hours ([1]; July 30): 37.7 ± 23.4 per sticky trap

C=CCc1ccccc1 [VIII, allylbenzene]
Mean number of WCR adults per sticky trap (±standard deviation) after 24 hours ([1]; August 4 second year): 10.0 ± 1.4^a per sticky trap | Mean number of WCR adults per sticky trap (±standard deviation) after 24 hours ([1]; August 5 first year): 1.0 ± 0.8^a per sticky trap | Mean number of SCR adults per sticky trap (±standard deviation) after 24 hours ([2]; August 4 second year): 12.4 ± 7.2^b per sticky trap | Mean number of SCR adults per sticky trap (±standard deviation) after 24 hours ([2]; August 5 first year): 24.7 ± 16.9^a per sticky trap

CC(=O)C=Cc1ccccc1 [XVII, phenyl-3-butone-2-one ketone]
Mean number of WCR adults per sticky trap (±standard deviation) after 24 hours ([1]; September 11): 0.0 per sticky trap | Mean number of SCR adults per sticky trap (±standard deviation) after 24 hours ([2]; September 11): 5.0 ± 3.7^b per sticky trap

CCCc1ccc(OC)cc1 [IV, 4-methoxy-1-propylbenzene]
Relative percent activity as compared with the highest mean in the column (WCR) ([1]; July 30): 37% | Mean number of WCR per sticky trap (±standard deviation) after 24 hours ([1]; July 30): 30.5 ± 11.0 per sticky trap

COc1ccc(C=CC(C)=O)cc1 [XVI, 4-(4′-methoxyphenyl)-3-butene-2-one]
Mean number of WCR adults per sticky trap (±standard deviation) after 24 hours ([1]; September 11): 2.0 ± 3.7^a per sticky trap | Mean number of SCR adults per sticky trap (±standard deviation) after 24 hours ([2]; September 11): 1.0 ± 0.8^a per sticky trap

C=Cc1ccc(OC)cc1 [III, 4-methoxy-1-vinyl benzene]
Relative percent activity as compared with the highest mean in the column (WCR) ([1]; August 29): 15% | Mean number of WCR per sticky trap (±standard deviation) after 24 hours ([1]; August 29): 21.5 ± 6.5 per sticky trap | Relative percent activity as compared with the highest mean in the column (WCR) ([1]; July 30): 40% | Mean number of WCR per sticky trap (±standard deviation) after 24 hours ([1]; July 30): 32.2 ± 13.5 per sticky trap

COc1ccc(CC#N)cc1 [VII, 4-methoxyphenyl acetonitrile]
Relative percent activity as compared with the highest mean in the column (WCR) ([1]; August 29): 78% | Mean number of WCR per sticky trap (±standard deviation) after 24 hours ([1]; August 29): 114.5 ± 83.4 per sticky trap | Relative percent activity as compared with the highest mean in the column (WCR) ([1]; July 30): 46% | Mean number of WCR per sticky trap (±standard deviation) after 24 hours ([1]; July 30): 37.5 ± 8.4 per sticky trap

COc1ccc(CCN)cc1 [4-methoxyphenylethylamine]
Mean number of NCR per trap (± standard deviation) [3]: 24.2 ± 15.4a per trap

NCc1ccccc1 [benzylamine]
Mean number of NCR per trap (± standard deviation) [3]: 57.5 ± 29.6b* per trap

NCCc1ccccc1 [phenylethylamine]
Mean number of NCR per trap (± standard deviation) [3]: 206.7 ± 32.3d per trap | Mean number (control subtracted) of NCR per trap ([3]; day 1 after single 100 mg dosage on cotton wick): 85.9 per trap | Mean number (control subtracted) of NCR per trap ([3]; day 2 after single 100 mg dosage on cotton wick): 125.3 per trap | Mean number (control subtracted) of NCR per trap ([3]; day 3 after single 100 mg dosage on cotton wick): 39.4 per trap | Mean number (control subtracted) of NCR per trap ([3]; day 4 after single 100 mg dosage on cotton wick): 27.5 per trap | Mean number (control subtracted) of NCR per trap ([3]; day 5 after single 100 mg dosage on cotton wick): 155.4 per trap | Mean number (control subtracted) of NCR per trap ([3]; day 6 after single 100 mg dosage on cotton wick): 44.2 per trap | Mean number (control subtracted) of NCR per trap ([3]; day 7 after single 100 mg dosage on cotton wick): 38.4 per trap | Mean number (control subtracted) of NCR per trap ([3]; day 8 after single 100 mg dosage on cotton wick): 17.5 per trap | Mean number (control subtracted) of NCR per trap ([3]; day 11 after single 100 mg dosage on cotton wick): 3.8 per trap

CC=Cc1cccc(OC)c1 [II, 4-methoxy-2-propenylbenzene]
Mean number of SCR per trap (±standard deviation) [4, 6]: 1.5 ± 1.0 per trap | relative percent activity of the mean SCR trap catch as compared with the highest mean value in the column ([4]; mixture 20 mg each component): 7% | Mean number of WCR per trap (±standard deviation) [5, 6]: 9.0 ± 4.3 per trap | relative percent activity of the mean WCR trap catch as compared with the highest mean value in the column ([5]; mixture 20 mg each component): 100% | Relative percent activity as compared with the highest mean in the column (WCR) ([1]; July 30): 58% | Mean number of WCR per sticky trap (±standard deviation) after 24 hours ([1]; July 30): 48.0 ± 23.3 per sticky trap

NCCCCc1ccccc1 [phenylbutylamine]
Mean number of NCR per trap (± standard deviation) [3]: 12.2 ± 6.1a per trap

COc1ccccc1C=CC=O [XIII, 2-methoxycinnamaldehyde]
Mean number of WCR adults per sticky trap (±standard deviation) after 24 hours ([1]; August 4 second year): 53.0 ± 14.7^c per sticky trap | Mean number of SCR adults per sticky trap (±standard deviation) after 24 hours ([2]; August 4 second year): 12.2 ± 9.9^b per sticky trap

NCCCc1ccccc1 [phenylpropylamine]
Mean number of NCR per trap (± standard deviation) [3]: 131.5 ± 16.5c per trap

COc1ccc(C=CC#N)cc1 [IX, 4-methoxycinnamonitrile]
Mean number of WCR adults per sticky trap (±standard deviation) after 24 hours ([1]; August 4 second year): 196.0 ± 145.3^de per sticky trap | Mean number of WCR adults per sticky trap (±standard deviation) after 24 hours ([1]; August 5 first year): 59.0 ± 32.1^d per sticky trap | Mean number of SCR adults per sticky trap (±standard deviation) after 24 hours ([2]; August 4 second year): 4.0 ± 2.2^ab per sticky trap | Mean number of SCR adults per sticky trap (±standard deviation) after 24 hours ([2]; August 5 first year): 6.5 ± 3.0^a per sticky trap
